Tested on: GUMC-403
Assay: viability at highest tested concentration (max response) relative to DMSO (% of DMSO control); higher = less cytotoxic
Conditions: library / dose series: MIPE library, 11-point 1:3 dilution, 48 h
Procedure, shortened: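 Plates of 1536 wells were seeded with 700 patient-derived GUMC-403 papilloma cells per well, grown by conditional reprogramming, in 5 μL F + Y medium and kept overnight at 37 °C. Compounds followed at 23 nL by pin tool over an 11-point 1:3 series, for 48 h. After a CellTiter-Glo luminescence read on a ViewLux, signals were set against vehicle wells as 100% and empty wells as 0%. The reported number is viability at the highest tested concentration relative to vehicle control.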

| Structure (SMILES) | viability (top concentration 46.1 µM) | also measured |
| --- | --- | --- |
| Nc1nc(F)nc2c1ncn2[C@@H]1O[C@H](COP(=O)(O)O)[C@@H](O)[C@@H]1O | 101 | – |
| CCN1CCN(c2ccc(Nc3cc(N(C)C(=O)Nc4c(Cl)c(OC)cc(OC)c4Cl)ncn3)cc2)CC1 | 117 | – |
| Cc1cccc(Nc2nc(N[C@@H]3CCCC[C@@H]3N)ncc2C(N)=O)c1 | 66.7 | – |
| C/C=C(/C)C(=O)O[C@H]1C(C)=C[C@]23C(=O)[C@@H](C=C(CO)[C@@H](O)[C@]12O)[C@H]1[C@@H](C[C@H]3C)C1(C)C | 106 | – |
| Cc1nnc(C(=O)NC(C)(C)c2nc(C(=O)NCc3ccc(F)cc3)c(O)c(=O)n2C)o1 | 124 | – |
| CCOC(=O)C/1=C(C)/NC(=S)NC1C2=CC=CC(=C2)O (stereo not drawn) | 118 | – |
| Cc1ccc([S+](=O)([O-])Nc2cc(Cl)ccc2C(=O)Nc2nc(-c3ccccc3)cs2)cc1 | 104 | – |
| CCCCOc1ccc(CC(=O)NO)cc1 | 109 | – |
| CC(O)(C#Cc1ccc2c(c1)N(c1nc(N)ncc1Cl)CC2)c1nccs1 (stereo not drawn) | 86.5 | – |
| COc1ccc(C2Sc3ccccc3N(CCN(C)C)C(=O)C2OC(C)=O)cc1 (stereo not drawn) | 110 | – |
| CCN(CC)C(=O)C1=CC=C(C=C1)C/2=C/C3(CCNCC3)OC4=CC=CC(=C24)O | 125 | – |
| O=C(O)c1cccc(-c2noc(-c3ccccc3F)n2)c1 | 118 | – |
| COc1ccccc1OCC(O)CN1CCN(CC(=O)Nc2c(C)cccc2C)CC1 (stereo not drawn) | 130 | – |
| C[S+]([O-])(=O)C1=CC=C(C=C1)C/2=C(/C(=O)OC2)C3=CC=CC=C3 | 122 | – |
| O=C(CCCN1CCC(O)(c2ccc(Cl)cc2)CC1)c1ccc(F)cc1 | 105 | – |
| N=C(N)Nc1ccc(C(=O)Oc2ccc3cc(C(=N)N)ccc3c2)cc1 | 86.1 | – |
| CCOC(=O)N1CCN(/[N+]([O-])=N/Oc2ccc([N+](=O)[O-])cc2C#N)CC1 | 92.1 | – |
| CCCC1OC2C[C@H]3[C@@H]4CCC5=CC(=O)C=C[C@]5(C)[C@H]4C(O)C[C@]3(C)[C@]2(C(=O)CO)O1 (stereo partly drawn) | 121 | – |
| Oc1cc(O)cc(/C=C/c2ccc(O)c(O)c2)c1 | 91.7 | – |
| NC(CO)C(=O)NNCc1ccc(O)c(O)c1O (stereo not drawn) | 96.3 | – |

| Structure (SMILES) | viability (top concentration 46.1 µM) | also measured |
| --- | --- | --- |
| CN1CCC(CC1)=C2C3=C(C=CC=C3)\C=C/C4=C2C=CC=C4 | 111 | – |
| CC(=O)OCC(=O)[C@@]12OC(C)(C)O[C@@H]1C[C@H]3[C@@H]4C[C@H](F)C/5=C/C(=O)/C=C\[C@]5(C)[C@@]4(F)[C@@H](O)C[C@]23C | 116 | – |
| CC(C)(C)NC(=O)[C@@H]1CN(Cc2cccnc2)CCN1C[C@@H](O)C[C@@H](Cc1ccccc1)C(=O)N[C@H]1c2ccccc2C[C@H]1O.O=S(=O)(O)O | 130 | – |
| C[C@@H]1C[C@H]2[C@@H]3CC\C4=C\C(=O)\C=C/[C@]4(C)[C@@]3(Cl)[C@@H](O)C[C@]2(C)[C@@]1(OC(=O)C5=CC=CO5)C(=O)CCl | 133 | – |
| CN(C)c1ccccc1CN1CCCN(Cc2ccccc2N(C)C)C1c1ccncc1 | 97.4 | – |
| C[C@]12CC[C@@H]3c4ccc(OC(=O)N(CCCl)CCCl)cc4CC[C@H]3[C@@H]1CC[C@@H]2OP(=O)([O-])[O-].[Na+].[Na+] | 124 | – |
| COc1ccc(CC2c3cc(OC)c(OC)cc3CC[N+]2(C)CCC(=O)OCCCCCOC(=O)CC[N+]2(C)CCc3cc(OC)c(OC)cc3C2Cc2ccc(OC)c(OC)c2)cc1OC (stereo not drawn) | – | viability (top concentration 7.37 µM): 84 |
| O=C(C[C@@H]1C/C=C\CCC(=O)O[C@H](c2ccccc2)CNC1=O)NCc1ccc(Cl)cc1 | 97.5 | – |
| Cc1cc(-c2ncc(CC(=O)Nc3ccc(-c4cnccn4)cn3)cc2C)ccn1 | 85.8 | – |
| Cc1ccccc1C(C(=O)NC1CCCCC1)N(C(=O)CNc1ccc(C#N)cc1)c1cccc(F)c1 (stereo not drawn) | 108 | – |
| CC(C)=CC[C@@H](O)C/1=C/C(=O)C2=C(O)C=CC(=C2C1=O)O | 78.5 | – |
| O=C(Nc1ccccc1-c1cn2c(CN3CCNCC3)csc2n1)c1cnc2ccccc2n1 | 81.3 | – |
| C=CC1=C(C(=O)O)N2C(=O)[C@@H](NC(=O)/C(=N\O)c3csc(N)n3)[C@H]2SC1 | 130 | – |
| CO[C@H]1CCC(O[C@H]2C[C@H]([C@]3(C)CC[C@]4(C[C@H](O)[C@@H](C)[C@@H]([C@@H](C)/C=C(\C)C(=O)[C@H](C)C[C@H](C)C(=O)[O-])O4)O3)O[C@]3(O[C@@H]([C@H]4O[C@@](O)(CO)[C@H](C)C[C@@H]4C)C[C@@H]3C)[C@@H]2C)O[C@@H]1C (stereo partly drawn) | 104 | – |
| CC(C)CN(C[C@@H](O)[C@H](Cc1ccccc1)NC(=O)O[C@H]1CCOC1)[S+](=O)([O-])c1ccc(N)cc1 | 109 | – |
| COc1cc2ncnc(Nc3cccc(Cl)c3)c2cc1OC | 98.8 | – |
| N=C(CCSCc1csc(N=C(N)N)n1)N[S+](N)(=O)[O-] | 124 | – |
| COC1=CC=C(C=C1)C/2=C(OC3O[C@@H](C)[C@H](O)[C@@H](O)[C@H]3O)/C(=O)C4=C(O2)C(=C(OC5O[C@H](CO)[C@@H](O)[C@H](O)[C@H]5O)C=C4O)CC=C(C)C (stereo partly drawn) | 117 | – |
| O=c1[nH]c(=O)n(C2CCCO2)cc1F (stereo not drawn) | – | viability (top concentration 92.2 µM): 104 |
| CO[C@@]12[C@H](COC(N)=O)C/3=C(N1C[C@@H]4N[C@H]24)/C(=O)/C(=C(N)\C3=O)C | 77 | – |

| Structure (SMILES) | viability (top concentration 46.1 µM) | also measured |
| --- | --- | --- |
| CC(/C=C1\SC(=S)N(CC(=O)O)C1=O)=C\c1ccccc1 | 132 | – |
| Cc1ccc([S+](=O)([O-])N[C@@H](Cc2ccccc2)C(=O)CCl)cc1 | 90.3 | – |
| NC(=O)Cc1cccc(C(=O)c2ccccc2)c1N | 112 | – |
| COCC1(CO)C(=O)C2CCN1CC2 (stereo not drawn) | 108 | – |
| C/C=C(/C(=C/C)c1ccc(O)cc1)c1ccc(O)cc1 | 89.2 | – |
| C=CC(=O)Nc1cccc(Oc2nc(Nc3ccc(N4CCN(C)CC4)cc3)ncc2Cl)c1 | 26.8 | – |
| NC1CCC(Nc2nc(Nc3ccc(C(=O)N4CCCCC4)cc3)c3ncn(-c4cccc(F)c4)c3n2)CC1 (stereo not drawn) | 86 | – |
| Cn1cnc([N+](=O)[O-])c1Sc1ncnc2nc[nH]c12 | 105 | – |
| COc1cc2c(cc1OC)CN(CCc1ccc(NC(=O)c3cccc4c(=O)c5cccc(OC)c5[nH]c34)cc1)CC2 | 132 | – |
| CC[N+](CC)(CC)CCOc1cccc(OCC[N+](CC)(CC)CC)c1OCC[N+](CC)(CC)CC | 97.6 | – |
| FC1=C(C=C(C\C2=N\NC(=O)C3=C2C=CC=C3)C=C1)C(=O)N4CCN(CC4)C(=O)C5CC5 | 82.6 | – |
| CO[C@H]1/C=C/O[C@@]2(C)Oc3c(C)c(O)c4c(O)c(c(/C=N/N5CCN(C)CC5)c(O)c4c3C2=O)NC(=O)/C(C)=C\C=C\[C@H](C)[C@H](O)[C@@H](C)[C@@H](O)[C@@H](C)[C@H](OC(C)=O)[C@@H]1C | – | viability (top concentration 11.1 µM): 107 |
| CC(CCc1ccc(O)cc1)NCCc1ccc(O)c(O)c1 (stereo not drawn) | 105 | – |
| CN1CCN2c3ccccc3Cc3ccccc3C2C1 (stereo not drawn) | 106 | – |
| COc1c(N2C[C@@H]3CCCN[C@@H]3C2)c(F)cc2c(=O)c(C(=O)O)cn(C3CC3)c12.Cl.O | 133 | – |
| CCC1=C(C)CN(C(=O)NCCc2ccc(S(=O)(=O)NC(=O)N[C@H]3CC[C@H](C)CC3)cc2)C1=O | 113 | – |
| CCOc1ccc(Nc2nc(-c3c(C)nc4ccccn34)cs2)cc1 | 101 | – |
| CCCCCCCCCCCC(CC1OC(=O)C1CCCCCC)OC(=O)C(CC(C)C)NC=O (stereo not drawn) | 101 | – |

Source: the supplement of paper PMC6723410
